Laboratory results reported in ChEMBL document CHEMBL1142685, “Novel anticholinesterases based on the molecular skeletons of furobenzofuran and methanobenzodioxepine” (J Med Chem, 2005).

Assays:
[1] = target: Acetylcholinesterase (Homo sapiens, UniProt P22303)
Description: Inhibitory concentration against human erythrocyte Acetylcholinesterase

[2] = target: Cholinesterase (Homo sapiens, UniProt P06276)
Description: Inhibitory concentration against human plasma Butyrylcholinesterase

[3] = test system: SK-N-SH; assay: Reduction in Amyloid-beta precursor protein levels in Human SK-N-SH cells at 10 uM; format: functional

Cholinesterase, sequence (P06276 whole entry): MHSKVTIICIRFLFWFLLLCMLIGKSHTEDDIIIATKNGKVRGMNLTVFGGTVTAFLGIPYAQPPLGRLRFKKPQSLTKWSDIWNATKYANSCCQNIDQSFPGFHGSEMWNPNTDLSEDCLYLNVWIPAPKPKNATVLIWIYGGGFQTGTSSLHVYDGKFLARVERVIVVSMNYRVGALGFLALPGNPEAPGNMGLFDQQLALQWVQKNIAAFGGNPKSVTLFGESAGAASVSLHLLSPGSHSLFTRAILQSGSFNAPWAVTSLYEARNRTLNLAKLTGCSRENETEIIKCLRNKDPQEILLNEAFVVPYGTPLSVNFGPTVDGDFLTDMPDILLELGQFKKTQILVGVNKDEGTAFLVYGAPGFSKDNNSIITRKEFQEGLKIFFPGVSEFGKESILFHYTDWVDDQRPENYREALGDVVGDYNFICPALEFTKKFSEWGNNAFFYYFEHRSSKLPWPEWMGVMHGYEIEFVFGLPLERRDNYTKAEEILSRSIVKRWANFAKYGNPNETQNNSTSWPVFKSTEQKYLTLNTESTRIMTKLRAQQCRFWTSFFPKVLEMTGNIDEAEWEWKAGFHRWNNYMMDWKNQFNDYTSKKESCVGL
Acetylcholinesterase, sequence (P22303 whole entry): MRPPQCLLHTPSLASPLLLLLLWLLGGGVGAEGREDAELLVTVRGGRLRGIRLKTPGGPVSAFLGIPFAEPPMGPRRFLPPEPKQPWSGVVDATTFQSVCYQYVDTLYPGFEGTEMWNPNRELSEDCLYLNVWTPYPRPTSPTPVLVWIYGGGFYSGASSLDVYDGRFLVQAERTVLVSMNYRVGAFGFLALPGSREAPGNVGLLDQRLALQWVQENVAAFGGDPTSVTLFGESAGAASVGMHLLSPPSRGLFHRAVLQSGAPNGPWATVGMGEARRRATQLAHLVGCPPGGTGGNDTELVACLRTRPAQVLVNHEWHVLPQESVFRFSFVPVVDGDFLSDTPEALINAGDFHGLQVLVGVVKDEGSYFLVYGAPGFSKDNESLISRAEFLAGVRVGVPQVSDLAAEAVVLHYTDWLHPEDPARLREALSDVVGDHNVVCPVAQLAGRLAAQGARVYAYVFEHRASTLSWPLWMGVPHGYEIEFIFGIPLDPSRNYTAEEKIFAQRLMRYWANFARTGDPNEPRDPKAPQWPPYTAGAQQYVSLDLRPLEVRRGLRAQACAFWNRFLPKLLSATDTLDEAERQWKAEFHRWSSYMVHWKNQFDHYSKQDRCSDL

Compound	IC50 [1]	IC50 [2]	Reduction [3]
CC(C)c1ccc(NC(=O)Oc2ccc3c(c2)[C@]2(C)CCOC2N3C)cc1 (some centres not stated)	3860 nM	17 nM	–
Cc1ccccc1NC(=O)Oc1ccc2c(c1)C1(C)COC(C1)O2 (configuration not stated)	56 nM	> 30000 nM	–
Cc1ccccc1NC(=O)Oc1ccc2c(c1)C1(C)CCOC1O2 (configuration not stated)	–	> 30000 nM	–
CC(C)c1ccc(NC(=O)Oc2ccc3c(c2)C2(C)COC(C2)O3)cc1 (configuration not stated)	4300 nM	22 nM	–
CC(C)c1ccc(NC(=O)Oc2ccc3c(c2)C2(C)CCOC2O3)cc1 (configuration not stated)	–	27 nM	–
CCNC(=O)Oc1ccc2c(c1)[C@]1(C)CCN(C)C1N2C (some centres not stated)	94 nM	4 nM	–
Cc1ccccc1NC(=O)Oc1ccc2c(c1)[C@]1(C)CCOC1N2C (some centres not stated)	13 nM	1560 nM	–
CNC(=O)Oc1ccc2c(c1)[C@]1(C)CCOC1N2C (some centres not stated)	27 nM	4 nM	–
CCNC(=O)Oc1ccc2c(c1)C1(C)COC(C1)O2 (configuration not stated)	–	24 nM	–
CCNC(=O)Oc1ccc2c(c1)[C@]1(C)CCOC1N2C (some centres not stated)	82 nM	2 nM	–
CCNC(=O)Oc1ccc2c(c1)C1(C)CCOC1O2 (configuration not stated)	360 nM	6 nM	–
CCc1ccccc1NC(=O)Oc1ccc2c(c1)[C@]1(C)CC[N+](C)([O-])[C@@H]1N2C (some centres not stated)	125 nM	1700 nM	–
CN1CC[C@@]2(C)c3cc(OC(=O)Nc4ccccc4)ccc3N(C)[C@@H]12 [PHENSERINE]	–	–	50%
